The target of assay [1] is Casein kinase I isoform epsilon (Homo sapiens, UniProt P49674). Kind of assay: Selectivity interaction (Kinase panel (Z-LYTE Assay)) EUB0001632a CSNK1E. The conditions noted are these: at 10 µM.
In assay [2] the target is T1, Dual specificity mitogen-activated protein kinase kinase 3 (Homo sapiens) (UniProt P46734).
T1 sequence (whole entry): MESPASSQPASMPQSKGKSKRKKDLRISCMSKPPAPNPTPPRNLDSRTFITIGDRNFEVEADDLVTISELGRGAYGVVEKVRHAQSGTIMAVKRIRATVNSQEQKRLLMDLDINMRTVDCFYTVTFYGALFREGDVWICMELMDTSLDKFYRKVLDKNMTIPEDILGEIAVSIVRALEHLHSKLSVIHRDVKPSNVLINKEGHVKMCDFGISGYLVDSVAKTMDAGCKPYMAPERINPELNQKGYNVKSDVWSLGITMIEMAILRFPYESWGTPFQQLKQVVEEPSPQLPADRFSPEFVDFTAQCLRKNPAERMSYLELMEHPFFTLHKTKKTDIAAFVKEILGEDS
Kind of assay: Selectivity interaction (Ambit KINOMEscan and KiNATiv profiling in Jurkat cells) EUB0000090b MAP2K3. The assay is classed as cell-based. The conditions noted are these: at 1 µM.

Assay [3] concerns the target T2, Rhodopsin kinase GRK1 (Homo sapiens) (UniProt Q15835).
T2 sequence (whole entry): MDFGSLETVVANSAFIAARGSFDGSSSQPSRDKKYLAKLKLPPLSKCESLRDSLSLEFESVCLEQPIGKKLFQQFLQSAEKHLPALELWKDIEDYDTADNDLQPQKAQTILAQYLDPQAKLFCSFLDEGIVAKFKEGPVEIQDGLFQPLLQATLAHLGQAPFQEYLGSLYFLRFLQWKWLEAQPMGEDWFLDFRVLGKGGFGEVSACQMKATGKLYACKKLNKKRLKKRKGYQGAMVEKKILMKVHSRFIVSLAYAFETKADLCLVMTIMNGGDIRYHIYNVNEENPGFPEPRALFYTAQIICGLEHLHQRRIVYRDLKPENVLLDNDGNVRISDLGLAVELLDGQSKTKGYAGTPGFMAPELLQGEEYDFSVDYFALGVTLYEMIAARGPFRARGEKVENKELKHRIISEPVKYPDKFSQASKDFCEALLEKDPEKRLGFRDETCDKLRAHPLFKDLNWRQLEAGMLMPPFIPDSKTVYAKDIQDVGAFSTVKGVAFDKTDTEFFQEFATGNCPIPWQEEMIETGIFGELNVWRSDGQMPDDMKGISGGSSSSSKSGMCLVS
Kind of assay: Selectivity interaction (Ambit KINOMEscan and KiNATiv profiling in Jurkat cells) EUB0000090b GRK1. It counts as cell-based. The conditions noted are these: at 1 µM.

Assay [4] concerns the target Cyclin-dependent kinase 8 (Homo sapiens, UniProt P49336). Kind of assay: Selectivity interaction (KinomeScan (DiscoverX)) EUB0000607a CDK8. The conditions noted are these: at 10 µM.
Assay [5] concerns the target Serine/threonine-protein kinase PAK 6 (Homo sapiens) (UniProt Q9NQU5). Kind of assay: Selectivity interaction (KinomeScan (DiscoverX)) EUB0000229b PAK6. Particulars: at 10 µM.
Assay [6] concerns the target T3, Serine/threonine-protein kinase D1 (Homo sapiens) (UniProt Q15139).
T3 sequence (whole entry): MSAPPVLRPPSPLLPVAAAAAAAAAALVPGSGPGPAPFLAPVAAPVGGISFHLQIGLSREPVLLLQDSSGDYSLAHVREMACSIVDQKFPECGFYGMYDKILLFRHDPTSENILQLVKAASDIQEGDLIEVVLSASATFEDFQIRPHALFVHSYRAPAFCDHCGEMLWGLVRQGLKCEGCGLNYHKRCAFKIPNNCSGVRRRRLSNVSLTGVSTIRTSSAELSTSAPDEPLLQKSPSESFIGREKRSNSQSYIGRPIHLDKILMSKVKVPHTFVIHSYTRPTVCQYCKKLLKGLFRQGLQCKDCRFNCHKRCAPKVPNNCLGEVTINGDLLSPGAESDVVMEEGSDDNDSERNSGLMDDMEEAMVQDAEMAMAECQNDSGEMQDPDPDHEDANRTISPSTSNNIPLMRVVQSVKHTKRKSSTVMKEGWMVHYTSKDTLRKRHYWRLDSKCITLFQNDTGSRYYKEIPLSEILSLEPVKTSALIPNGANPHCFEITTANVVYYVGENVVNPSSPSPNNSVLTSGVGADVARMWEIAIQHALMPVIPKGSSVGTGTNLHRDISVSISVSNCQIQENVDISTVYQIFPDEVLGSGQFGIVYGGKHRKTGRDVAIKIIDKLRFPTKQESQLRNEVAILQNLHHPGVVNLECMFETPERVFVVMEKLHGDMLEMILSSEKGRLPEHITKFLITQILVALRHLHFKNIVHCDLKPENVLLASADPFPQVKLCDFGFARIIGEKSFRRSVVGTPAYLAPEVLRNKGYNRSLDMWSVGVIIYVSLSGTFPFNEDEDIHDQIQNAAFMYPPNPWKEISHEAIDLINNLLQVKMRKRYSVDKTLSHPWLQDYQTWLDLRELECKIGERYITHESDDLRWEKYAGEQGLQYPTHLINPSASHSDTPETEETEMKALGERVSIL
As to the kind of experiment: Selectivity interaction (Kinase panel (literature)) EUB0001199aCl PRKD1. Particulars: at 1 µM.

For assay [7], the target named is Serine/threonine-protein kinase MARK1 (Homo sapiens) (UniProt Q9P0L2). Particulars: at 10 µM.
For assay [8], the target named is ALK tyrosine kinase receptor (Homo sapiens, UniProt Q9UM73). As to the kind of experiment: Selectivity interaction (Millipore kinase profiler) EUB0000124b ALK. Particulars: at 10 µM.
For assay [9], the target named is T4, Mitogen-activated protein kinase kinase kinase 3 (Homo sapiens) (UniProt Q99759).
T4 sequence (whole entry): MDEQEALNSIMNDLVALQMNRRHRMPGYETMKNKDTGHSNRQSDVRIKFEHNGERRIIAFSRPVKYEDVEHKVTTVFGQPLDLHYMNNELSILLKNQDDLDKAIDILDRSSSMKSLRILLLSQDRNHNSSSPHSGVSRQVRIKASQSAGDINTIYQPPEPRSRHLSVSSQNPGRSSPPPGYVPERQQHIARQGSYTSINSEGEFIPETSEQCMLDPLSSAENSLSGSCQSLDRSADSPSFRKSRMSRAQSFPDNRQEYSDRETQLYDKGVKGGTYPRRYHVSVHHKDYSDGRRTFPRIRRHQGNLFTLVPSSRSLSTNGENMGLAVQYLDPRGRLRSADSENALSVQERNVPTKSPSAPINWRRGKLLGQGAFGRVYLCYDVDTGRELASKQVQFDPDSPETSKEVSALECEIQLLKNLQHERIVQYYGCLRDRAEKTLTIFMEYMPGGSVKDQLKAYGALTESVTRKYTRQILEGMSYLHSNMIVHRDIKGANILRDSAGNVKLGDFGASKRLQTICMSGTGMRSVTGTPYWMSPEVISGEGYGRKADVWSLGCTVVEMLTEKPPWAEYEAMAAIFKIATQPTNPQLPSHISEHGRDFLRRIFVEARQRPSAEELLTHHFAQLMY
As to the kind of experiment: Selectivity interaction (ProQinase) EUB0000171b MAP3K3.

Sequence of Cyclin-dependent kinase 8 (P49336 whole entry): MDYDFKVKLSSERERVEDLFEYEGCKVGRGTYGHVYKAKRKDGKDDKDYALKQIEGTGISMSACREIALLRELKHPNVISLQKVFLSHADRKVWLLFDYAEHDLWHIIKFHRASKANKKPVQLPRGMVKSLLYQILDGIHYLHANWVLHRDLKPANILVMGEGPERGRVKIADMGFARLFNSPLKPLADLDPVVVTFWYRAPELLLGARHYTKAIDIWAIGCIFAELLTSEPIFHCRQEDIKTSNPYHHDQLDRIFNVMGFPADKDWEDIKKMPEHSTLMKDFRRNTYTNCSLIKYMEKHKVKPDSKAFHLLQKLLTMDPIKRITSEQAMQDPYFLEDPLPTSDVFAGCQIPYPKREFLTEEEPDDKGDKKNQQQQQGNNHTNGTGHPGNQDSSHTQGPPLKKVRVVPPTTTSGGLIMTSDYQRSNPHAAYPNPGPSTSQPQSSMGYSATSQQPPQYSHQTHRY
Sequence of Serine/threonine-protein kinase MARK1 (Homo sapiens) (Q9P0L2 whole entry, looked up): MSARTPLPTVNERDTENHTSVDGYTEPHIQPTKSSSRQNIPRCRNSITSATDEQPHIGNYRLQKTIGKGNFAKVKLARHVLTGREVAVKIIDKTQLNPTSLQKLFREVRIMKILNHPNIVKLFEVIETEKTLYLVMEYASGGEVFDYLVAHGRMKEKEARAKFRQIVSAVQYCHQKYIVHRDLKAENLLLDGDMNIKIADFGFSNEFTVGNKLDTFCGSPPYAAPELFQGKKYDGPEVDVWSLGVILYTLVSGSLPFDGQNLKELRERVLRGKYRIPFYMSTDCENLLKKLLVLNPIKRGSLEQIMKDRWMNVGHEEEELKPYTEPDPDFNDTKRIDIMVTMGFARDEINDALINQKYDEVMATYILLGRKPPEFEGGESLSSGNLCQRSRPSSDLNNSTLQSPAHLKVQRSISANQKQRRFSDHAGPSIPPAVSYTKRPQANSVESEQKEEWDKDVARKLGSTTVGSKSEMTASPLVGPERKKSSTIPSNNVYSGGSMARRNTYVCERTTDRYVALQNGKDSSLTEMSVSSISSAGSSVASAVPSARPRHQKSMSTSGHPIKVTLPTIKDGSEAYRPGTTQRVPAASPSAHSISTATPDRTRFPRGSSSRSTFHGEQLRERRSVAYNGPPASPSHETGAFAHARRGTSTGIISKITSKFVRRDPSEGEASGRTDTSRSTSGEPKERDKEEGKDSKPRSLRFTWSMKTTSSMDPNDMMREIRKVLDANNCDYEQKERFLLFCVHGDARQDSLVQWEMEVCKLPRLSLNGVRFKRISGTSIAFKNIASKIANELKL
Sequence of ALK tyrosine kinase receptor (Q9UM73 19-1620 limits assumed): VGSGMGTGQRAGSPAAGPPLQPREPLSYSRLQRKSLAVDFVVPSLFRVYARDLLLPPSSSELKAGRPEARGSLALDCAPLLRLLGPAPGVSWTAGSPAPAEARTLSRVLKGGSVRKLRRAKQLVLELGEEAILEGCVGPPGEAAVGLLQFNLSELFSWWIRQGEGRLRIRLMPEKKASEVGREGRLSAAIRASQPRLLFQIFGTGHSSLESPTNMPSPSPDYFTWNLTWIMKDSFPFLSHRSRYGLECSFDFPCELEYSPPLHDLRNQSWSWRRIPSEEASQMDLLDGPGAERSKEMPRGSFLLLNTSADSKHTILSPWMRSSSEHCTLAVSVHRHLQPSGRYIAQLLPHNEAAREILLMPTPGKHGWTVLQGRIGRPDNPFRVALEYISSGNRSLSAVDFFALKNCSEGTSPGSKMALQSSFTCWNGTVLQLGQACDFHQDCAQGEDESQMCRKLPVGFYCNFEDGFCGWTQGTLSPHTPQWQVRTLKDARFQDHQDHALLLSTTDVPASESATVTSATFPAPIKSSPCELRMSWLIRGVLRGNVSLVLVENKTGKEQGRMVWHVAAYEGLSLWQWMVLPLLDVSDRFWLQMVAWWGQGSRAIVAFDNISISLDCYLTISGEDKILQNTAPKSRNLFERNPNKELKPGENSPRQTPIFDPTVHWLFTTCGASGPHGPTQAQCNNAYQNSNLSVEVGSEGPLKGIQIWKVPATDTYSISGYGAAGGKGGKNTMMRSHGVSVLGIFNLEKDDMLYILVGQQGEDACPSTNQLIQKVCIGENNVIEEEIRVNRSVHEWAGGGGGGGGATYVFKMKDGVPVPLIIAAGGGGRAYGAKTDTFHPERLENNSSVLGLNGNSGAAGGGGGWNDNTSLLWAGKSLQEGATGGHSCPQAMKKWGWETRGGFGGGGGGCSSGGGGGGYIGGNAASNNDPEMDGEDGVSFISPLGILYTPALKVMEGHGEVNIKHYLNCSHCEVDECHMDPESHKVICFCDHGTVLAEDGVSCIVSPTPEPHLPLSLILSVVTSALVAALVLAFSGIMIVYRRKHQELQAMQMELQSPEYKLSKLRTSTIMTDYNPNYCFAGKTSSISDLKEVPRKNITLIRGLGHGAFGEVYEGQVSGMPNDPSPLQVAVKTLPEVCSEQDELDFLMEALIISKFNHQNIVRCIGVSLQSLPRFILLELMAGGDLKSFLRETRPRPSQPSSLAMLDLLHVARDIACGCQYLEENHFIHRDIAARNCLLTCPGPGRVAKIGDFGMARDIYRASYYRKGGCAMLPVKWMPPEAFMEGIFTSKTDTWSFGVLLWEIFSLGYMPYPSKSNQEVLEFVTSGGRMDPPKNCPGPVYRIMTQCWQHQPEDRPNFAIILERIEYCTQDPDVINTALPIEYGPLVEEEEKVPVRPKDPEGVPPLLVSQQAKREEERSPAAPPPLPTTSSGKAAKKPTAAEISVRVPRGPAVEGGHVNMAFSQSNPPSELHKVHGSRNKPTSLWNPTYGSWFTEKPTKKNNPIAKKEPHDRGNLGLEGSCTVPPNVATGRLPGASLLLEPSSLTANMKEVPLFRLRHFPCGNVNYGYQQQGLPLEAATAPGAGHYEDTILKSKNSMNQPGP
Sequence of Serine/threonine-protein kinase PAK 6 (Homo sapiens) (Q9NQU5 whole entry, looked up): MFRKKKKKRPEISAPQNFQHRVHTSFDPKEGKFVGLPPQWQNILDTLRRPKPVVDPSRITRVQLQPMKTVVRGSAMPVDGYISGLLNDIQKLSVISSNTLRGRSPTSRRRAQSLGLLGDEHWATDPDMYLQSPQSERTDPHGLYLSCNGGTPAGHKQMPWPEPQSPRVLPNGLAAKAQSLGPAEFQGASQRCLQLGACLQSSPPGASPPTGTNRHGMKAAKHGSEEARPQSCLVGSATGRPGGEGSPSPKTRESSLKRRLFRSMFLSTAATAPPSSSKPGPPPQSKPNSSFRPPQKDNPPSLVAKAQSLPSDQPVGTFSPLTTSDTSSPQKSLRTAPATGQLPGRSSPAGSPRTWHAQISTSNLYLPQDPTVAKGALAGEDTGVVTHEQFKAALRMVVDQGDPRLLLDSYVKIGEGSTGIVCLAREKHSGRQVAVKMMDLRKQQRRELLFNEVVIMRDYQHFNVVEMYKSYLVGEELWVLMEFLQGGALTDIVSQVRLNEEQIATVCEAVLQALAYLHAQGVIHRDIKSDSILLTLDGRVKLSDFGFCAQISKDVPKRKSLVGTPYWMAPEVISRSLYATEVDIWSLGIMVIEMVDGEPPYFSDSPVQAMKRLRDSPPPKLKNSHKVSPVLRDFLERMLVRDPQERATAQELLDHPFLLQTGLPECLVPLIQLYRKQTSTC
Sequence of Casein kinase I isoform epsilon (P49674 whole entry, looked up, canonical isoform): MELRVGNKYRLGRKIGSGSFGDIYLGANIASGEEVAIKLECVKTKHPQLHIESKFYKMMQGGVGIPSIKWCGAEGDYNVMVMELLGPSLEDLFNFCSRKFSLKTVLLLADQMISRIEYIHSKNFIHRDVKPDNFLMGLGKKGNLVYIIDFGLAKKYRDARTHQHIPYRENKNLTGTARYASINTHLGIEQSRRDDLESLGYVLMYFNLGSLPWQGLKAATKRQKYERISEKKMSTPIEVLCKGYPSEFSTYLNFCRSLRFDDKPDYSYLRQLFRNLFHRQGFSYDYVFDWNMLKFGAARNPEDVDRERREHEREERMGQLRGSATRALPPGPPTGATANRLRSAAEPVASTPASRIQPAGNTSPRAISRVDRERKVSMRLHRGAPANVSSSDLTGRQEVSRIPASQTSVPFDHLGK

As for `Cn1cc(-n2cnc3c(NCc4nc5cc(Cl)c(Cl)cc5[nH]4)nc(N4CCOCC4)nc32)cn1`, the % of control in assay [1] stood at 48.9%.
For `CN(C)C/C=C/C(=O)Nc1ccc(C(=O)N2CCCC(Nc3ncc(Cl)c(-c4c[nH]c5ccccc45)n3)C2)cc1` (stereo not given), the % of control in assay [2] worked out at 51%; in assay [3], 57%.
In assay [4], `CNC(=O)Nc1ccc(-c2nc(N3CC4CCC(C3)O4)c3cnn(C4CCC5(CC4)OCCO5)c3n2)cc1` gave a % of control of 100%.
`COc1cc(N(C)c2ccnc3ccc(C(F)(F)F)cc23)cc(OC)c1OC` returned a % binding in [5] of 96%.
Regarding `CN1Cc2nccc(-c3cn(C)nc3-c3ccc(F)cc3)c2C1=O`, in [6], the % of inhibition is -11%.
Consider `CCN(CC)CCCCNc1ncc2cc(-c3cc(OC)cc(OC)c3)c(NC(=O)NC(C)(C)C)nc2n1`, for which the % of control in assay [7] came to 100%.
As for `CC(=O)Nc1cccc(-n2c(=O)n(C3CC3)c(=O)c3c(Nc4ccc(I)cc4F)n(C)c(=O)c(C)c32)c1`, the % of control in assay [8] came out at 166%.
For `C=CC(=O)Nc1cccc(C(=O)Nc2ccc(Nc3cc(-c4[nH]c(SC)nc4C)ccn3)cc2)c1`, the % of control stood at 102% in assay [9] (at 1 µM) and 103% in assay [9] (at 5 µM).

For the origin of these results see ChEMBL document CHEMBL5465560, “Selectivity Literature for EUbOPEN Chemogenomic Library” (2024).
